Source: patent publication US6613791B1, “N-substituted azaheterocyclic carboxylic acids and their use” (Novo Nordisk A/S, priority 1994, dated 2003)

Test system: formalin induced pain response
Experiment: Formalin induced pain or paw oedema in mice
Type: in vivo
Conditions: 0.1 mg/kg; NMRI female mice, 20 μl 1% formalin into left hind paw
Protocol: Values for in vivo inhibition of formalin induced pain or oedema for the compounds of the present invention were assessed in mice essentially by the method of Wheeler-Aceto and Cowan (Agents Action 1991, 34, 265-269).
About 20 g NMRI female mice were injected 20 μl 1% formalin into the left hind paw. The animals were then placed on a heated (31° C.) table, and the pain response was scored. After 1 h they were killed and bled. Left and right hind paws were removed and the weight difference between the paws was used as indication of the oedema response of the formalin injected paw.

| Compound | % Pain inhibition (inhibition of formalin induced pain response) |
| --- | --- |
| Cl.NC(=O)C1CCCN(CCCN2c3ccccc3CCc3ccccc32)C1 (stereo not shown) [Example 4, 1-(3-(10,11-Dihydro-5H-dibenz[b,f]azepin-5-yl)-1-propyl)-3-piperidinecarboxamide Hydrochloride] | 47% |
| Cl.O=C(O)C1CCCCN1CCCN1c2ccccc2CCc2ccccc21 (stereo not shown) [Example 5, 1-(3-(10,11-Dihydro-5H-dibenz[b,f]azepin-5-yl)-1-propyl)-2-piperidinecarboxylic Acid Hydrochloride] | 36% |
| Cl.OC1(c2ccc(Cl)cc2)CCN(CCCN2c3ccccc3CCc3ccccc32)CC1 [Example 2, 4-(4-Chlorophenyl)-1-(3-(10,11-dihydro-5H-dibenz[b,f]azepin-5-yl)-1-propyl)piperidin-4-ol Hydrochloride] | 13% |
| Cl.O=C(O)C1Cc2ccccc2CN1CCCN1c2ccccc2CCc2ccccc21 (stereo not shown) [Example 9, 2-(3-(10,11-Dihydro-5H-dibenz[b,f]azepin-5-yl)-1-propyl)-1,2,3,4-tetrahydro-3-isoquinolinecarboxylic Acid Hydrochloride] | 29% |
| Cl.O=C(O)C1CN(CCCN2c3ccccc3CCc3ccccc32)CCO1 (stereo not shown) [Example 8, 4-(3-(10,11-Dihydro-5H-dibenz[b,f]azepin-5-yl)-1-propyl)-2-morpholinecarboxylic Acid Hydrochloride] | 34% |

Test system: not given
Experiment: not given
Conditions: not given

| Compound | melting point |
| --- | --- |
| Cc1ccc2c(c1)N(CCCN1CCC(C(=O)O)CC1)c1cc(C)ccc1CC2 (hydrate or solvate) [Example 24, 1-(3-(3,7-Dimethyl-10,11-dihydro-5H-dibenz[b,f]azepin-5-yl)-1-propyl)-4-piperidinecarboxylic Acid] | 207 to 209 °C |
| Cl.O=C(O)CC1CCCN(CCCN2c3ccccc3CCc3ccccc32)C1 (stereo not shown) | 233 to 235 °C |
| Cl.O=C(O)C1CCN(CCCN2c3cc(Cl)ccc3CCc3ccc(Cl)cc32)CC1 | 237 to 239 °C |
| Cl.O=C(O)C1CCN(CCCN2c3ccccc3CCc3ccccc32)CC1 | 195 to 197 °C |
| Cl.O=C(O)C1CCN(CCCN2c3ccccc3Oc3ccccc32)CC1 | 196 to 198 °C |
| CC1C(C(=O)O)CCCN1CCCN1c2ccccc2CCc2ccccc21.Cl (stereo not shown) (hydrate or solvate) | 169 to 170 °C |
| Cl.O=C(O)C1CCN(CCC=C2c3ccccc3CCc3ccccc32)CC1 | 224 to 226 °C |
| Cc1ccc2c(c1)C(=CCCN1CCC(C(=O)O)CC1)c1ccccc1CC2.Cl | > 250 °C |
| Cl.OCC1CCCN(CCCN2c3ccccc3CCc3ccccc32)C1 (stereo not shown) | 145 to 147 °C |
| Cl.O=C(O)C1Cc2ccccc2CN1CCCN1c2ccccc2CCc2ccccc21 (stereo not shown) (hydrate or solvate) [Example 9, 2-(3-(10,11-Dihydro-5H-dibenz[b,f]azepin-5-yl)-1-propyl)-1,2,3,4-tetrahydro-3-isoquinolinecarboxylic Acid Hydrochloride] | 205 to 208 °C |
| Cl.O=C(O)C1CCN(CCCN2c3ccc(Br)cc3CCc3cc(Br)ccc32)CC1 (hydrate or solvate) | 165 to 166 °C |
| Cl.O=C(O)C1CCCCN1CCCN1c2ccccc2CCc2ccccc21 (stereo not shown) (hydrate or solvate) [Example 5, 1-(3-(10,11-Dihydro-5H-dibenz[b,f]azepin-5-yl)-1-propyl)-2-piperidinecarboxylic Acid Hydrochloride] | 122 to 126 °C |
| CN(C)c1ccc2c(c1)N(CCCN1CCC(C(=O)O)CC1)c1ccccc1CC2 (hydrate or solvate) [Example 25, 1-(3-(3-Dimethylamino-10,11-dihydro-5H-dibenz[b,f]azepin-5-yl)-1-propyl)-4-piperidinecarboxylic Acid] | 198 to 202 °C |
| Cl.NC(=O)[C@@H]1CCCN(CCC=C2c3ccccc3CCc3ccccc32)C1 | > 250 °C |
| Cl.O=C(O)CC1CCN(CCCN2c3ccccc3CCc3ccccc32)CC1 | 185 to 188 °C |
| O=C([O-])C1CN(CCCN2c3ccccc3CCc3ccccc32)CCN1.[K+] (stereo not shown) (hydrate or solvate) | 151 to 155 °C |
| Cl.O=C(O)C1CN(CCCN2c3ccccc3CCc3ccccc32)CCO1 (stereo not shown) (hydrate or solvate) [Example 8, 4-(3-(10,11-Dihydro-5H-dibenz[b,f]azepin-5-yl)-1-propyl)-2-morpholinecarboxylic Acid Hydrochloride] | 196 to 199 °C |
